System: antibody in sera from Helicobacter pylori infected patients and healthy control subjects
Experiment: Immunoassay detecting serum antibodies specific for individual peptide antigens
Assay type: binding, human
Conditions: for functional specificity for the H. pylori protein: candidate sequences tested, FIGS. 4 and 5; for ability of peptide to identify Helicobacter pylori infected individuals: 30 infected patients vs 30 healthy controls, threshold control mean plus 2.5 standard deviations
From the text: 1. Possible Outcomes for Peptides Screened as Antigens in Serum Antibody Assays:
1. A positive result indicating the presence of a peptide-specific antibody in patient biological fluid samples, absent evidence of antibody in samples from subjects without the microorganism or autoimmune disease (FIG. 3) indicates the tested peptide is a specific peptide (immunogen) for a targeted protein.
3. No difference in positive antibody levels between patients and subjects without disease.
2. Immunoassay Method 1: Used to Detect Serum IgA, IgD, IgE, IgG, and IgM Antibodies Specific for Individual Peptide Antigens
(§1) Peptide solution: 0.06 μg/mL peptide dissolved in 20 mM Tris chloride, pH 7.4, containing 600 mM sodium chloride, 30 mg/mL polyethylene glycol 4000, 1 mm ethylenediaminetetraacetic acid, 1 mM ethylene glycol-bis(§-aminoethyl ether)N,N,N′,N′-tetraacetic acid, 0.5 mg/mL triton x-405 and 0.2 mg/mL thimerosal.
as §1, with “Control peptide” for “Peptide”, “0.013” for “0.06”, “μg/mL control” for “μg/mL”
Conjugate solution: 0.100 μg/mL alkaline phosphatase conjugated polyclonal goat anti human IgG dissolved in 20 mM Tris-HCL, pH 7.40, with 600 mM sodium chloride, 30.0 mg/mL peg-4000, 3.0 mg/mL BSA, 0.5 mg/mL triton x-405 and 0.20 mg/mL thimerosal.
Substrate solution: 25.2 μg/mL 4-methylumbelliferyl phosphate dissolved in 180 mM 2-amino-2-methyl-1-propanol, pH 9.50, containing 123 μM magnesium chloride.
Serum preparation: • 1. Add 100 μl serum to 15 neutravidin^a coated paper discs in a suitably sized test tube. • 2. Incubate with gentle mixing at ambient temperature for 16-20 hours. • 3. Add 7.9 mL of serum diluent and mix gently for 30 minutes. • 4. Vortex the tube gently to completely release the serum from the discs. • 5. Remove the treated serum from the discs and transfer it to a suitable storage tube. • 6. Store the treated serum at 4 EC.
Assay procedure: • 1. Two days before assay, aspirate the storage solution from the NeutrAvidin^a coated white microtiter plate and add 200 μl plate blocking solution to each well. • 2. Cover the plate and incubate at ambient temperature for 16-20 hours. • 3. One day before assay. Wash the blocked plate three times with plate wash buffer, approximately 275 μl per well per wash. Aspirate the final wash and add 100 μl peptide solution or 100 μl control peptide solution to the appropriate wells of the plate. • 4. Cover the plate and incubate with gentle mixing at ambient temperature for 16-20 hours. • 5. Day of assay, wash the blocked plate three times with plate wash buffer, approximately 275 μl per well per wash. Aspirate the final wash and add 100 μl treated serum to the appropriate wells of the plate. • 6. Cover the plate and incubate at 25 EC for 2 hours. • 7. Wash the blocked plate six times with plate wash buffer, approximately 275 μl per well per wash. Aspirate the final wash and add 100 μl conjugate solution to each assay well. • 8. Cover the plate and incubate at 25 EC for 1.5 hours. • 9. Wash the blocked plate six times with plate wash buffer, approximately 275 μl per well per wash. Aspirate the final wash and add 100 μl substrate solution to each assay well. • 10. Read the plate at 30 and 60 minutes in a fluorescence microtiter plate reader set at 365 nm excitation and 450 nm emission. 3. Biotinylation of Human Serum Albumin

Sequence	functional specificity for the H. pylori protein	ability of peptide to identify Helicobacter pylori infected individuals	detection of fluids from infected persons (Example 1, FIGS. 3-5)	Helicobacter pylori infected individuals identified by the peptide (sera from 30 H. pylori infected patients, positive/negative threshold control mean)	control sera identified as positive for the peptide (sera from 30 healthy control subjects, antibodies to the peptide)
KNLESYQKDA	not functionally specific				
QKDAKECKGKRN		does not serve to identify Helicobacter pylori infected individuals			
QKDAKELKGKRN	not functionally specific	does not serve to identify Helicobacter pylori infected individuals			
MQEIDKKLTQKN			detected fluids from infected persons	three	no control sera were incorrectly identified as positive

Source: US20050169912A1, “Immunogenic peptides and uses thereof” (priority 2001, published 2005)
